Test results published in the C3SDB collision cross section collection.
Values joined by “and” are separate entries in the source; they are usually repeats but may differ in a detail not shown here. Equal entries are not always repeated.

Experiments:
[1] = instrument: DT, single field, calibrated with ESI Low Concentration Tuning Mix (Agilent)
[2] = [M+H]+; instrument: TW; calibrated with polyalanine and drug standards

C[n+]1cccc(C(N)=O)c1 [1-METHYLNICOTINAMIDE]
collision cross section (N2) ([1]; [M+]+): 126.2 Å²

CC(=O)N[C@@H]1[C@@H](O)[C@H](O)[C@@H](CO)O[C@H]1N [2-ACETAMIDO-2-DEOXY-BETA-D-GLUCOSYLAMINE]
collision cross section (N2) ([1]; [M+Na]+): 149.1 Å² and 157.8 Å²
collision cross section (N2) ([1]; [M-H]-): 155.2 Å²

CC[C@H](O)C(=O)O [2-HYDROXYBUTYRATE]
collision cross section (N2) ([1]; [M-H]-): 117.2 Å²

CC(CCC(=O)O)C(=O)O (stereo unspecified) [2-METHYLGLUTARATE]
collision cross section (N2) ([1]; [M+Na-2H]-): 132.6 Å²
collision cross section (N2) ([1]; [M+Na]+): 137.4 Å²
collision cross section (N2) ([1]; [M-H]-): 126 Å²

C/C(=C/C(=O)O)C(=O)O [2-METHYLMALEATE]
collision cross section (N2) ([1]; [M-H]-): 118.2 Å²

O=C(O)C(CO)OP(=O)(O)O (stereo unspecified) [2-PHOSPHOGLYCERATE]
collision cross section (N2) ([1]; [M+H]+): 134.3 Å²
collision cross section (N2) ([1]; [M+Na-2H]-): 133.1 Å²
collision cross section (N2) ([1]; [M+Na]+): 141.9 Å²
collision cross section (N2) ([1]; [M-H]-): 124.2 Å²

O=C(O)c1ccc([O-])c(O)c1 [3,4-DIHYDROXYBENZOATE]
collision cross section (N2) ([1]; [M-H]-): 122.5 Å²

N[C@@H](Cc1cc(I)c(Oc2ccc(O)cc2)c(I)c1)C(=O)O [3,5-DIIODO-L-THYRONINE]
collision cross section (N2) ([1]; [M+H]+): 198.5 Å²
collision cross section (N2) ([1]; [M+Na]+): 189.4 Å²
collision cross section (N2) ([1]; [M-H]-): 188.2 Å²

O=C([O-])CCc1ccccc1O [3-(2-HYDROXYPHENYL)PROPANOATE]
collision cross section (N2) ([1]; [M-H]-): 133.2 Å²

O=Cc1cccc(O)c1 [3-HYDROXYBENZALDEHYDE]
collision cross section (N2) ([1]; [M-H]-): 118 Å²

CC1C(=O)Nc2ccccc21 (stereo unspecified) [3-METHYL-2-OXINDOLE]
collision cross section (N2) ([1]; [M+H]+): 130.4 Å²

CCC(C)C(=O)C(=O)O (stereo unspecified) [3-METHYL-2-OXOVALERATE]
collision cross section (N2) ([1]; [M-H]-): 127.1 Å²

NC(CS(=O)O)C(=O)O (stereo unspecified) [3-SULFINOALANINE]
collision cross section (N2) ([1]; [M+H]+): 133.7 Å²

Nc1ccc(C(=O)[O-])cc1 [4-AMINOBENZOATE]
collision cross section (N2) ([1]; [M+H]+): 126.9 Å²

Cc1ccc(O)c(O)c1 [4-METHYLCATECHOL]
collision cross section (N2) ([1]; [M-H]-): 121 Å²

O=C(O)c1ccnc2ccccc12 [4-QUINOLINECARBOXYLATE]
collision cross section (N2) ([1]; [M+H]+): 133.4 Å²
collision cross section (N2) ([1]; [M-H]-): 134.3 Å²

C[C@H]1O[C@@H](n2cnc3c(N)ncnc32)[C@H](O)[C@@H]1O [5'-DEOXYADENOSINE]
collision cross section (N2) ([1]; [M+H]+): 152.3 Å² and 158.4 Å²
collision cross section (N2) ([1]; [M+Na]+): 167.2 Å²
collision cross section (N2) ([1]; [M-H]-): 154.8 Å²

Cc1cc2nc[nH]c2cc1C [5,6-DIMETHYLBENZIMIDAZOLE]
collision cross section (N2) ([1]; [M+H]+): 130.3 Å²
collision cross section (N2) ([1]; [M-H]-): 129.9 Å²

NC(Cc1c[nH]c2ccc(O)cc12)C(=O)O (stereo unspecified) [5-HYDROXYTRYPTOPHAN]
collision cross section (N2) ([1]; [M+H]+): 154.5 Å²
collision cross section (N2) ([1]; [M+Na-2H]-): 149.7 Å²
collision cross section (N2) ([1]; [M+Na]+): 152.6 Å²
collision cross section (N2) ([1]; [M-H]-): 146.9 Å² and 151.5 Å²

O=C(O)CCCCCC(=O)O [6-CARBOXYHEXANOATE]
collision cross section (N2) ([1]; [M+Na-2H]-): 134.4 Å²
collision cross section (N2) ([1]; [M+Na]+): 140 Å²
collision cross section (N2) ([1]; [M-H]-): 130.9 Å²

O=C(O)CCCCCCCCCO [10-HYDROXYDECANOATE]
collision cross section (N2) ([1]; [M+Na]+): 151 Å²
collision cross section (N2) ([1]; [M-H]-): 144.3 Å²

NCCP(=O)(O)O [(2-AMINOETHYL)PHOSPHONATE]
collision cross section (N2) ([1]; [M+H]+): 129 Å²
collision cross section (N2) ([1]; [M+Na]+): 136.5 Å²
collision cross section (N2) ([1]; [M-H]-): 120 Å²

Nc1ncnc2c1ncn2[C@@H]1O[C@H](COP(=O)(O)O)[C@@H](OP(=O)(O)O)[C@H]1O [ADENOSINE 3',5'-DIPHOSPHATE]
collision cross section (N2) ([1]; [M+H]+): 183.3 Å²
collision cross section (N2) ([1]; [M+Na-2H]-): 188.5 Å²
collision cross section (N2) ([1]; [M+Na]+): 188 Å²
collision cross section (N2) ([1]; [M-H]-): 184.3 Å²

Nc1ncnc2c1ncn2C1OC(COP(=O)(O)OP(=O)(O)OCC2OC(O)C(O)C2O)C(O)C1O (stereo unspecified) [ADENOSINE DIPHOSPHATE RIBOSE]
collision cross section (N2) ([1]; [M+H2O-H]-): 204.5 Å²
collision cross section (N2) ([1]; [M+H]+): 212.4 Å²
collision cross section (N2) ([1]; [M+Na-2H]-): 211.5 Å²
collision cross section (N2) ([1]; [M+Na]+): 217.5 Å²
collision cross section (N2) ([1]; [M-H]-): 202.3 Å² and 207.2 Å²

Nc1ncnc2c1ncn2[C@@H]1O[C@H](COP(=O)(O)OP(=O)(O)O[C@H]2O[C@H](CO)[C@@H](O)[C@H](O)[C@H]2O)[C@@H](O)[C@H]1O [ADP-GLUCOSE]
collision cross section (N2) ([1]; [M+H]+): 216.1 Å²
collision cross section (N2) ([1]; [M+Na-2H]-): 218.4 Å²
collision cross section (N2) ([1]; [M+Na]+): 224.9 Å²
collision cross section (N2) ([1]; [M-H]-): 217.5 Å²

C[C@H](O)[C@H](N)C(=O)O [ALLOTHREONINE]
collision cross section (N2) ([1]; [M-H]-): 119.3 Å²

Cn1cncc1C[C@H](NC(=O)CCN)C(=O)O [ANSERINE]
collision cross section (N2) ([1]; [M+H]+): 153.8 Å²
collision cross section (N2) ([1]; [M+Na]+): 156.2 Å²
collision cross section (N2) ([1]; [M-H]-): 154.8 Å²

OC[C@@H](O)C(O)[C@H](O)CO [ARABITOL]
collision cross section (N2) ([1]; [M+Na]+): 135.8 Å²
collision cross section (N2) ([1]; [M-H]-): 124.9 Å²

NC(N)=NCCC[C@H](N)C(=O)O [ARGININE]
collision cross section (N2) ([1]; [M+H]+): 136.6 Å²
collision cross section (N2) ([1]; [M+Na]+): 148.6 Å²
collision cross section (N2) ([1]; [M-H]-): 136.4 Å²

O=C(O)CCCCCCCC(=O)O [AZELATE]
collision cross section (N2) ([1]; [M+Na-2H]-): 141.9 Å²
collision cross section (N2) ([1]; [M+Na]+): 148.4 Å²

NC(=O)c1ccc[n+]([C@@H]2O[C@H](COP(=O)([O-])OP(=O)(O)OC[C@H]3O[C@@H](n4cnc5c(N)ncnc54)[C@H](O)[C@@H]3O)[C@@H](O)[C@H]2O)c1 [BETA-NICOTINAMIDE ADENINE DINUCLEOTIDE]
collision cross section (N2) ([1]; [M+H]+): 227.5 Å²
collision cross section (N2) ([1]; [M+Na-2H]-): 230.8 Å²
collision cross section (N2) ([1]; [M+Na]+): 222.7 Å²
collision cross section (N2) ([1]; [M-H]-): 223.8 Å²

NCCC(=O)N[C@@H](Cc1cnc[nH]1)C(=O)O [CARNOSINE]
collision cross section (N2) ([1]; [M+H]+): 150.8 Å²
collision cross section (N2) ([1]; [M+Na]+): 154.7 Å²
collision cross section (N2) ([1]; [M-H]-): 152.1 Å²

OC[C@H]1O[C@@H](O[C@H]2[C@H](O)[C@@H](O)[C@H](O)O[C@@H]2CO)[C@H](O)[C@@H](O)[C@@H]1O [CELLOBIOSE]
collision cross section (N2) ([1]; [M+K]+): 180.9 Å²
collision cross section (N2) ([1]; [M+Na]+): 178.7 Å²
collision cross section (N2) ([1]; [M-H]-): 179.7 Å²

O=C(O)CC(O)(CC(=O)O)C(=O)O [CITRATE]
collision cross section (N2) ([1]; [M+Na]+): 143.1 Å²
collision cross section (N2) ([1]; [M-H]-): 127.1 Å²

NC(=O)NCCC[C@H](N)C(=O)O [CITRULLINE]
collision cross section (N2) ([1]; [M+H]+): 137.7 Å²
collision cross section (N2) ([1]; [M+Na]+): 139.4 Å²
collision cross section (N2) ([1]; [M-H]-): 135.4 Å²

NC(CS(=O)(=O)O)C(=O)O (stereo unspecified) [CYSTEATE]
collision cross section (N2) ([1]; [M+H]+): 140.2 Å²
collision cross section (N2) ([1]; [M+Na-2H]-): 131.4 Å²
collision cross section (N2) ([1]; [M+Na]+): 148.2 Å²
collision cross section (N2) ([1]; [M-H]-): 123 Å²

CCCCC(=O)N(Cc1ccc(-c2ccccc2-c2nn[nH]n2)cc1)[C@H](C(=O)O)C(C)C [VALSARTAN]
collision cross section (N2) [2]: 202 Å²

Nc1ncnc2c1ncn2[C@@H]1O[C@H](CO)[C@@H](O)[C@@H]1O [VIDARABINE]
collision cross section (N2) [2]: 156.4 Å²

CC[C@]12CCCN3CCc4c(n(c5ccccc45)[C@@](O)(C(=O)OC)C1)[C@@H]32 [VINCAMINE]
collision cross section (N2) [2]: 180.9 Å²

COc1cc(O)c(C(C)=O)c(OC)c1 [XANTHOXYLIN]
collision cross section (N2) [2]: 135.9 Å²

CCCOc1ccccc1-c1nc2[nH][nH]nc-2c(=O)n1 [ZAPRINAST]
collision cross section (N2) [2]: 159.2 Å²

CN(C)CCc1c[nH]c2ccc(C[C@H]3COC(=O)N3)cc12 [ZOLMITRIPTAN]
collision cross section (N2) [2]: 159.7 Å²

CN1CCN(C(=O)OC2c3nccnc3C(=O)N2c2ccc(Cl)cn2)CC1 (stereo unspecified) [ZOPICLONE]
collision cross section (N2) [2]: 186.5 Å²

CC(=O)O[C@@H]1CC2C(C)(C)[C@H](O)CC[C@]2(C)C2CC[C@@]3(C)[C@H](c4ccoc4)OC(=O)C4OC43[C@@]21C (stereo partly drawn) [alpha-DIHYDROGEDUNOL]
collision cross section (N2) [2]: 205.9 Å²

COc1c(O)cc2oc3cc(O)c(CC=C(C)C)c(O)c3c(=O)c2c1CC=C(C)C [alpha-MANGOSTIN]
collision cross section (N2) [2]: 198.8 Å²

CC(=O)Oc1c(C)c(C)c2c(c1C)CCC(C)(CCCC(C)CCCC(C)CCCC(C)C)O2 (stereo not drawn) [alpha-TOCHOPHERYL ACETATE]
collision cross section (N2) [2]: 230.2 Å²

CC12CCCC(O)(C1)C1CC(C)(C)C1CC2 (stereo not drawn) [beta-CARYOPHYLLENE ALCOHOL]
collision cross section (N2) [2]: 146.1 Å²
